Data published in patent publication US20230049231A1 (priority 2019, published 2023).

Columns and labels:
hERG channel = molecular target: T1, hERG channel (Homo sapiens, UniProt Q12809); experiment: hERG electrophysiology, automated whole-cell patch clamp (Patchliner); assay type: cell-based
T1 construct: expressed in transfected cells
Description: This assay is used to evaluate the disclosed compounds' inhibition activities against the hERG channel.
CHO-K1 cells stably expressing hERG were grown in Ham's F-12 Medium with glutamine containing 10% heat-inactivated FBS, 1% penicillin/streptomycin, hygromycin (100 μg/ml) and G418 (100 μg/ml). Cells were grown in culture flasks at 37° C. in a 5% CO2-humidified incubator.
(§1) The cells were bathed in an extracellular solution containing 140 mM NaCl, 4 mM KCl, 2 mM CaCl2), 1 mM MgCl2, 5 mM glucose, and 10 mM HEPES; pH adjusted to 7.4 with NaOH; 295-305 mOsm. The internal solution contained 50 mM KCl, 10 mM NaCl, 60 mM KF, 20 mM EGTA, and 10 mM HEPES; pH adjusted to 7.2 with KOH; 285 mOsm. All compounds were dissolved in DMSO at 30 mM. Compound stock solutions were freshly diluted with external solution to concentrations of 30 nM, 100 nM, 300 nM, 1 μM, 3 μM, 10 μM, 30 μM and 100 μM. The highest content of DMSO (0.3%) was present in 100 μM.
The voltage protocol (see Table 3) was designed to simulate voltage changes during a cardiac action potential with a 300 ms depolarization to +20 mV (analogous to the plateau phase of the cardiac action potential), a repolarization for 300 ms to −50 mV (inducing a tail current) and a final step to the holding potential of −80 mV. The pulse frequency was 0.3 Hz. Control (compound-free) and compound pulse trains for each compound concentration applied contained 70 pulses.
(§2) Whole-cell current recordings and compound application were enabled by means of an automated patch clamp platform Patchliner (Nanion). EPC 10 patch clamp amplifier (HEKA) along with Patchmaster software (HEKA Elektronik Dr. Schulze GmbH) was used for data acquisition. Data were sampled at 10 kHz without filtering. Increasing compound concentrations were applied consecutively to the same cell without washouts in between.
AUC and PEAK values were obtained with Patchmaster (HEKA Elektronik Dr. Schulze GmbH). To determine IC50 the last single pulse in the pulse train corresponding to a given compound concentration was used. Obtained AUC and PEAK values in the presence of compound were normalized to control values in the absence of compound. Using Origin (OridinLab), IC50 was derived from data fit to Hill equation: Icompound/Icontrol=(100-A)/(1+([compound]/IC50)nH)+A, where IC50 is the concentration at which current inhibition is half-maximal, [compound] is the applied compound concentration, A is the fraction of current that is not blocked and nH is the Hill coefficient.

Kv1.3 potassium channel = molecular target: T2, Kv1.3 potassium channel (Homo sapiens, UniProt P22001); experiment: Kv1.3 potassium channel blocker activity, automated whole-cell patch clamp (Patchliner); assay type: cell-based
T2 construct: expressed in transfected cells
Description: This assay is used to evaluate the disclosed compounds' activities as Kv1.3 potassium channel blockers.
CHO-K1 cells stably expressing Kv1.3 were grown in DMEM containing 10% heat-inactivated FBS, 1 mM sodium pyruvate, 2 mM L-glutamine and G418 (500 μg/ml). Cells were grown in culture flasks at 37° C. in a 5% CO2-humidified incubator.
as §1
The currents were evoked by applying 100 ms depolarizing pulses from −90 mV (holding potential) to +40 mV were applied with 0.1 Hz frequency. Control (compound-free) and compound pulse trains for each compound concentration applied contained 20 pulses.
10-second breaks were used between pulse trains (see Table 2 below).
as §2, with “(Nanion Technologies GmbH).” for “(Nanion).”, “(HEKA Elektronik Dr. Schulze GmbH)” for “(HEKA)”, “filtering. Passive leak currents were subtracted online using a P/4 procedure (HEKA Elektronik Dr. Schulze GmbH).” for “filtering.”, “between. Total compound incubation time before the next pulse train was not longer than 10 seconds. Peak current inhibition was observed during compound equilibration.” for “between.”
AUC and peak values were obtained with Patchmaster (HEKA Elektronik Dr. Schulze GmbH). To determine IC50, the last single pulse in the pulse train corresponding to a given compound concentration was used. Obtained AUC and peak values in the presence of compound were normalized to control values in the absence of compound. Using Origin (OridinLab), IC50 was derived from data fit to Hill equation: Icompound/Icontrol=(100−A)/(1+([compound]/IC50)nH)+A, where IC50 value is the concentration at which current inhibition is half-maximal, [compound] is the applied compound concentration, A is the fraction of current that is not blocked and nH is the Hill coefficient.

[1] = hERG channel, whole-cell patch clamp
[2] = Kv1.3 potassium channel, whole-cell patch clamp
[3] = CHO-K1 cells stably expressing hERG, +20 mV 300 ms, -50 mV 300 ms tail current, 0.3 Hz
[4] = CHO-K1 cells stably expressing Kv1.3, 100 ms pulses from -90 mV to +40 mV, 0.1 Hz

T2 sequence (P22001 whole entry): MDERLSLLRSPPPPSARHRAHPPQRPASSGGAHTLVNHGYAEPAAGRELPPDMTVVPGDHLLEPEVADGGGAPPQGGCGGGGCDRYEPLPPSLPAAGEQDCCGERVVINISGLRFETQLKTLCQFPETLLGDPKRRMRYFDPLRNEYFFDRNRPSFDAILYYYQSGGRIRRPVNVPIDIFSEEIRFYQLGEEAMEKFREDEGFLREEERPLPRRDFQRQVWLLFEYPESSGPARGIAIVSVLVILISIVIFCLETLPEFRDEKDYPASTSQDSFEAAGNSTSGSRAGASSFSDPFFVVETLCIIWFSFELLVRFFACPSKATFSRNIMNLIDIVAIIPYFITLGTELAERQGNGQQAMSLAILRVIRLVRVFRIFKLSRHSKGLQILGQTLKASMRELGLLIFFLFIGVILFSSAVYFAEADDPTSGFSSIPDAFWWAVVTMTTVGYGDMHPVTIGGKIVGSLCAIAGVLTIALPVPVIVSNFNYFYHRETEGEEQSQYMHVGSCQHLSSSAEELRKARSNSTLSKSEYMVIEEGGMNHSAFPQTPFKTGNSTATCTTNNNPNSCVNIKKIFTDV
T1 sequence (Q12809 whole entry): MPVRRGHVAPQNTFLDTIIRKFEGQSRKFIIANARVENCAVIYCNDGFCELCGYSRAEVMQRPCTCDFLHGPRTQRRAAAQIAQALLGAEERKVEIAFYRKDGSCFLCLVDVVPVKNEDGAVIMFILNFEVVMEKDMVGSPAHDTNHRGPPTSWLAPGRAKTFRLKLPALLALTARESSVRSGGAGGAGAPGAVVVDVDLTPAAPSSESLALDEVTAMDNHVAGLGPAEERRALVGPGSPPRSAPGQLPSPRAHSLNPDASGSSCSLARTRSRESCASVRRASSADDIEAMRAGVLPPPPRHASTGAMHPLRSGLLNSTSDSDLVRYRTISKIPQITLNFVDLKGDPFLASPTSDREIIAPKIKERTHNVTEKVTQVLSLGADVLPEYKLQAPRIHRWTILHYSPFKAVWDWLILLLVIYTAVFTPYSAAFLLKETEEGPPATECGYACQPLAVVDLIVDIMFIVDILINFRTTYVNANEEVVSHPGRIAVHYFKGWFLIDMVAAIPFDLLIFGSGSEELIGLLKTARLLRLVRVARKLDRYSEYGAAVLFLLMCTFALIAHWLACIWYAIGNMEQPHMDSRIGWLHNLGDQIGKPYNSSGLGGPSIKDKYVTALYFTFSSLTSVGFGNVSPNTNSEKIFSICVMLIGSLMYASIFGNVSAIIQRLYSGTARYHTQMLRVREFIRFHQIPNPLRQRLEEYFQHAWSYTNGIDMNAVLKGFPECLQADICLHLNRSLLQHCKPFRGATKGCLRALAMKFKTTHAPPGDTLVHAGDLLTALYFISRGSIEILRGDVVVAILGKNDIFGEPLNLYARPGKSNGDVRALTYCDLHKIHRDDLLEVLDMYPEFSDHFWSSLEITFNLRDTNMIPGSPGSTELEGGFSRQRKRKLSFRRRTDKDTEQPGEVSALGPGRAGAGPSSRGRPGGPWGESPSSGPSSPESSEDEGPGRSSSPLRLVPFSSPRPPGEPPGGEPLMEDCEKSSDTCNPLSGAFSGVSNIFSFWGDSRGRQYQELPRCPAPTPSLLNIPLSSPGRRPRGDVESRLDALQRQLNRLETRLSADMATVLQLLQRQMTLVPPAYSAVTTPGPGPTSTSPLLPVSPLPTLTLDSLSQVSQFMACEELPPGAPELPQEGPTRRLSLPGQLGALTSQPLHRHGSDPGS

Compound | IC50 (Kv1.3 potassium channel; [2]) | IC50 (Kv1.3 potassium channel; [4]) | IC50 (hERG channel; [1]) | IC50 (hERG channel; [3])
NC(=O)CC1OC[C@@H]2C[C@H](c3c(O)ccc(Cl)c3Cl)CCN2C1=O (stereo partly drawn) [Compound 187, 2-[(8R,9aS)-8-(2,3-dichloro-6-hydroxyphenyl)-4-oxo-hexahydro-1H-pyrido[2,1-c][1,4]oxazin-3-yl]acetamide] | < 1000 nM | – | > 30 µM | –
COC[C@H](O)CN1CC(=O)N2C[C@@H](c3c(O)ccc(Cl)c3Cl)C[C@H]2C1 (single isomer, unassigned; isomer 2) [Compound 153] | < 1000 nM | – | < 30 µM | –
N[C@@H]1CC(=O)N2C[C@@H](c3c(O)ccc(Cl)c3Cl)C[C@H]2C1 (single isomer, unassigned) [Compound 190] | < 1000 nM | – | > 30 µM | –
CN(C)CC1CC(=O)N2C[C@@H](c3c(O)ccc(Cl)c3Cl)C[C@H]2C1 (stereo partly drawn) [Compound 240, (2R,8aR)-2-(2,3-dichloro-6-hydroxyphenyl)-7-[(dimethylamino)methyl]-hexahydro-1H-indolizin-5-one] | < 1000 nM | – | < 10 µM | –
O=C(NC1CNC1)[C@H]1CC(=O)N2C[C@@H](c3c(O)ccc(Cl)c3Cl)C[C@H]2C1 (single isomer, unassigned) [Compound 235] | < 1000 nM | – | > 30 µM | –
CCO[C@H](CO)C(=O)N1CC(=O)N2C[C@@H](c3c(O)ccc(Cl)c3Cl)C[C@H]2C1 [Compound 66, (7R,8aS)-7-(2,3-dichloro-6-hydroxyphenyl)-2-[(2R)-2-ethoxy-3-hydroxypropanoyl]-hexahydropyrrolo[1,2-a]pyrazin-4-one] | < 1000 nM | – | > 30 µM | –
C[C@H]1CC(=O)N2C[C@@H](c3c(O)ccc(Cl)c3Cl)C[C@H]2CN1C(=O)CO [Compound 94, (3S,8R,9aS)-8-(2,3-dichloro-6-hydroxyphenyl)-2-(2-hydroxyacetyl)-3-methyl-hexahydro-1H-pyrrolo[1,2-a][1,4]diazepin-5-one] | < 1000 nM | – | > 30 µM | –
CN(CCO)[C@@H]1CC(=O)N2C[C@@H](c3c(O)ccc(Cl)c3Cl)C[C@H]2C1 (single isomer, unassigned) [Compound 204] | < 1000 nM | – | > 30 µM | –
NC(=O)N1CC(=O)N2C[C@@H](c3c(O)ccc(Cl)c3Cl)C[C@H]2C1 [Compound 55, (7R,8aS)-7-(2,3-dichloro-6-hydroxyphenyl)-4-oxo-hexahydropyrrolo[1,2-a]pyrazine-2-carboxamide] | – | < 1000 nM | – | > 30 µM
CN(C)[C@H]1CC(=O)N2C[C@@H](c3c(O)ccc(Cl)c3Cl)C[C@H]2C1 (single isomer, unassigned) [Compound 201] | < 1000 nM | – | < 10 µM | –
NCC1CC(=O)N2C[C@@H](c3c(O)ccc(Cl)c3Cl)C[C@H]2C1 (stereo partly drawn) [Compound 217, (2R,8aR)-7-(aminomethyl)-2-(2,3-dichloro-6-hydroxyphenyl)-hexahydro-1H-indolizin-5-one] | < 1000 nM | – | > 30 µM | –
O=C1OC[C@@H](O)[C@@H]2C[C@H](c3c(O)ccc(Cl)c3Cl)CN12 (single isomer, unassigned) [Compound 266] | < 1000 nM | – | > 30 µM | –
O=C1CN(C[C@H]2CCN2)C[C@@H]2C[C@H](c3c(O)ccc(Cl)c3Cl)CN12 (single isomer, unassigned; isomer 2) [Compound 140] | < 1000 nM | – | > 30 µM | –
O=C1CC(N2CCOCC2)C[C@@H]2C[C@H](c3c(O)ccc(Cl)c3Cl)CN12 (stereo partly drawn) [Compound 195, (2R,8aS)-2-(2,3-dichloro-6-hydroxyphenyl)-7-(morpholin-4-yl)-hexahydro-1-indolizin-5-one] | < 1000 nM | – | < 30 µM | –
O=C(CO)NCC1OC[C@@H]2C[C@H](c3c(O)ccc(Cl)c3Cl)CCN2C1=O (stereo partly drawn) [Compound 185, N-[[(8R,9aS)-8-(2,3-dichloro-6-hydroxyphenyl)-4-oxo-hexahydro-1H-pyrido[2,1-c][1,4]oxazin-3-yl]methyl]-2-hydroxyacetamide] | < 1000 nM | – | > 30 µM | –
O=C(CCO)N1CC(=O)N2CC[C@@H](c3c(O)ccc(Cl)c3Cl)C[C@H]2C1 [Compound 11, (8R,9aS)-8-(2,3-dichloro-6-hydroxyphenyl)-2-(3-hydroxypropanoyl)octahydro-4H-pyrido[1,2-a]pyrazin-4-one] | – | < 1000 nM | – | > 30 µM
CC(CO)N1CC(=O)N2C[C@@H](c3c(O)ccc(Cl)c3Cl)C[C@H]2C1 (stereo partly drawn) [Compound 127, (7R,8aS)-7-(2,3-dichloro-6-hydroxyphenyl)-2-(1-hydroxypropan-2-yl)-hexahydropyrrolo [1,2-a]pyrazin-4-one] | < 1000 nM | – | > 30 µM | –

Continued, in another order:

IC50 (Kv1.3 potassium channel; [2]) | IC50 (Kv1.3 potassium channel; [4]) | Compound | IC50 (hERG channel; [1]) | IC50 (hERG channel; [3])
< 1000 nM | – | O=C1CN([C@H]2C[C@@H](O)[C@@H](O)C2)C[C@@H]2C[C@H](c3c(O)ccc(Cl)c3Cl)CN12 (relative stereo) [Compound 130, (7R,8aS)-7-(2,3-dichloro-6-hydroxyphenyl)-2-[(1R,3R,4S)-rel-3,4-dihydroxycyclopentyl]-hexahydropyrrolo [1,2-a]pyrazin-4-one] | > 30 µM | –
< 1000 nM | – | O=C(C(CO)CO)N1CC(=O)N2C[C@@H](c3c(O)ccc(Cl)c3Cl)C[C@H]2C1 [Compound 65, (7R,8aS)-7-(2,3-dichloro-6-hydroxyphenyl)-2-[3-hydroxy-2-(hydroxymethyl)propanoyl]-hexa-hydropyrrolo[1,2-a]pyrazin-4-one] | > 30 µM | –
< 1000 nM | – | O=C1CCC[C@@H]2C[C@H](c3c(O)ccc(Cl)c3Cl)CN12 [Compound 223, (2R,8aR)-2-(2,3-dichloro-6-hydroxyphenyl)-hexahydro-1H-indolizin-5-one] | > 30 µM | –
< 1000 nM | – | C[C@H](C1CNC1)N1CC(=O)N2C[C@@H](c3c(O)ccc(Cl)c3Cl)C[C@H]2C1 (single isomer, unassigned; isomer 2) [Compound 138] | > 30 µM | –
– | < 1000 nM | O=C(CCO)N1CC(=O)N2C[C@@H](c3c(O)ccc(Cl)c3Cl)C[C@H]2C1 [Compound 17, (7R,8aS)-7-(2,3-dichloro-6-hydroxyphenyl)-2-(3-hydroxypropanoyl)hexa-hydropyrrolo[1,2-a]pyrazin-4(1H)-one] | – | > 30 µM
– | < 1000 nM | CCNC(=O)N1CC(=O)N2C[C@@H](c3c(O)ccc(Cl)c3Cl)C[C@H]2C1 [Compound 35, (7R,8aS)-7-(2,3-dichloro-6-hydroxyphenyl)-N-ethyl-4-oxo-hexahydropyrrolo[1,2-a]pyrazine-2-carboxamide] | – | > 30 µM
< 1000 nM | – | CNCC1OC[C@@H]2C[C@H](c3c(O)ccc(Cl)c3Cl)CCN2C1=O (stereo partly drawn) [Compound 182, (8R,9aS)-8-(2,3-dichloro-6-hydroxyphenyl)-3-[(methylamino)methyl]-hexahydro-1H-pyrido[2,1-c][1,4]oxazin-4-one] | < 30 µM | –
< 1000 nM | – | O=C1O[C@H](CO)C[C@@H]2C[C@H](c3c(O)ccc(Cl)c3Cl)CN12 (single isomer, unassigned) [Compound 268] | > 30 µM | –
